“Also recorded” adds a separate entry of the source.
What was measured:
plasmin [1] = molecular target: T1, plasmin (Homo sapiens, UniProt P00747); test: P36 peptide digestion in vitro by plasmin (HPLC, MALDI-ToF MS); type: biochemical; conditions: for Effect on P36 peptide plasmin digestion: 16 h, E:S 1:50, HPLC
T1 construct: purchased Merck, Darmstadt
Protocol: Lyophilized plasmin with a specific activity of 10 U/mg (Merck, Darmstadt, Allemagne) was dissolved in sterile water to a concentration of 1 mg/mL. In control sample, P36 peptide (6.79 × 10^−4 M) was incubated overnight at 37°C in a Tris-HCl buffer (150 mM NaCl, 5 mM CaCl2, 50 mM Tris-HCl, pH 7.5). […] Aliquots were analyzed by HPLC as described below.
Dose-dependent digestion of P36 peptide by plasmin was measured by incubating P36 peptide 16 h at 37°C with different plasmin concentrations. Time-dependent analysis of P36 peptide cleavage by plasmin was obtained by incubating P36 with plasmin (E:S 1:50 at 37°C) during different time. Cleavage of the peptide was monitored by HPLC using method 1.
HPLC samples (20 μL of each sample with 30 μL of 0.1% trifluoroacetic acid) were injected on a Waters Alliance 2695 HPLC system, equipped with a photodiode array 2996 PDA detector, fraction collector III (WFC III) and the Empower^TM chromatography software for data acquisition (Milford, MA, USA). The column used was a EC 250/4 Nucleosil reversed phase (5 μm particle size, 100 Å pore size, 4 × 250 mm) which was protected by a guard column CC 8/4 Nucleosil 300-5 C4 (Macherey-Nagel, Düren, Germany). The injection volume was 20 μL and detection was performed at λ = 214 nm. Eluants were 0.1% trifluoroacetic acid in water (A) and 0.1% trifluoroacetic acid in 80% acetonitrile (B). The analyses followed a linear gradient program with a flow at 0.8 mL/min. Two method conditions were used:
(§1) Solutions of matrix α–cyano-4-hydroxycinnamic acid (CHCA) was prepared as a saturated solution in ACN/water (1/1; v/v) containing 0.1% TFA (10 mg/mL). Samples were prepared at a concentration of 10 pmol/μL in water containing 0.1% TFA. Typically, 1 μL of the matrix was pipetted on the MALDI target plate. Then 1 μL of analyte was added and air-dried for MALDI-ToF MS analysis.
(§2) MS experiments were performed using micromass MALDITM–LR time-of-flight mass spectrometer (Waters MS technologies, Manchester, UK) equipped with a nitrogen UV laser (337 nm wavelength), reflectron optics, a fast dual micro-channel plate (MCP) detector and a high magnification camera system. Positive ion spectra were acquired in reflectron mode. The following voltages were applied: pulse 1940 V, MCP 2380 V, suppression 500, flight tube 12000 V, reflectron 5200 V. A time lag focusing (TLF) delay of 680 ns was used between the time of laser pulse and the application of the accelerating voltage. Samples were analyzed in reflectron acquisition mode in the mass range 550-4000 Da. Mass calibration was performed using a peptide mixture composed of Bradykinin fragment 1–5 (573.31 Da), human Angiotensin II (1046.54 Da), Neurotensin (1672.92 Da), ACTH clip (2465.20 Da), bovine Insulin ß-chain oxidized (3494.65 Da) and bovine Insulin (5730.61 Da).

plasmin [2] = molecular target: T1, plasmin; test: Kinetic analysis of P36 peptide cleavage by plasmin (KM, Kcat); type: biochemical; conditions: P36 8, 16, 32, 64 nM; 1.25 nM plasmin; 30 min, 37°C; HPLC; double-reciprocal plot
Protocol: Michaelis constant (KM) and first-order rate constant of substrate peptide turnover (Kcat) were obtained by digestion of P36 peptide (8, 16, 32, 64 nM), for 30 min at 37°C in the presence of 1.25 nM plasmin. Cleavage of the peptide was monitored by HPLC. From these measurements, Kcat and KM were calculated using double-reciprocal plot of 1/[S] versus 1/v.

plasmin [3] = test: P36 peptide digestion in SKMEL28 melanoma cell cultures; type: cell-based, human; conditions: MALDI-ToF MS
Protocol: (§3) Human melanoma cell line (SKMEL28) was purchased from the American Type Culture Collection (ATCC, Manassas, VA). Cells were grown in Dulbecco's Modified Eagle's medium (DMEM) supplemented with 10% Fetal Bovine Serum (FBS), 1% penicillin and streptomycin (PenStrep®, Gibco®, France) in Nunclon® 75 cm^2 flasks (Dutscher, Brumath, France) at 37°C in a humid atmosphere (5% CO2, 95% air). Murine melanoma B16F1 cells, were a generous gift of Dr. M. Grégoire (INSERM UMRS 419, Nantes, France). They were grown in RPMI 1640 medium supplemented with 5% FBS in Nunclon 25 cm^2 flasks at 37°C in a humid atmosphere (5% CO2, 95% air). All culture media and reagents were purchased from Life Technologies (Invitrogen, Strasbourg, France).
SKMEL28 were incubated in DMEM with 20 μL plasminogen (40 μg/mL) and/or 20 μL plasmin (10 μg/mL) and/or aprotinin (10^−5 M) and P36 peptide. Samples were analyzed using HPLC and Matrix Assisted Laser Desorption Ionisation – Time of flight protocol (MALDI-ToF) as described below.
siRNA specific to human tPA (FlexiTube GeneSolution for PLAT) was purchased from Qiagen (Courtaboeuf, France). The siRNA target different regions of the tPA mRNA: 1st siRNA target sequence (5′-[…]-3′), 2nd siRNA target sequence (5′-[…]-3′), 3rd siRNA target sequence (5′-[…]-3′) and 4th siRNA target sequence (5′-[…]-3′). Exponentially growing SKMEL28 cells were transfected with siRNA pools (20 nM) using lipofectamine™ 2000. Decrease of tPA mRNA expression was assessed by RT-qPCR at 48 h after transfection. Decrease of tPA protein expression was monitored by zymography and immunocytofluorescence 72 h after siRNA transfection. Cells were subjected to plasminogen treatment for P36 peptide cleavage 24 h after transfection.

MMP-1 = test: P36 peptide cleavage by MMP-1; type: biochemical; conditions: preliminary experiments, data not shown
MMP-2 = test: P36 peptide cleavage by MMP-2; type: biochemical; conditions: preliminary experiments, data not shown
MMP-9 = test: P36 peptide cleavage by MMP-9; type: biochemical; conditions: preliminary experiments, data not shown
MT1-MMP = test: P36 peptide cleavage by MT1-MMP; type: biochemical; conditions: preliminary experiments, data not shown
[4] = Intra-chain disulfide bond formation in solution; type: physicochemical; conditions: for Time for spontaneous intra-chain disulfide bond formation (C^1123-C^1128): in solution; for Intra-chain disulfide bond formation Cys^1123-Cys^1128: in solution over the time, MALDI-ToF MS
Protocol: as §1, §2

SKMEL28 cells = test: Scratch wound assay; type: cell-based, human; conditions: F4 200 μg/mL, p < 0.05 vs control, five experiments
Protocol: as §3
SKMEL28 cells (5 × 10^4 per well) were seeded in 24-well plates and cultivated to confluence in DMEM supplemented with 5% FBS. The cell layer was then wounded with a sterile 100 to 1000 μL pipet tip and re-incubated in fresh culture medium in the absence or presence of F4 peptide. After 24 h, 48 h or 72 h, cells were photographed and the size of the remaining wound measured.

B16F1 cells = test: In vivo murine melanoma model, tumor growth; set-up: species or system mouse (murine B16F1 melanoma in C57Bl6 mice); conditions: day 15; B16F1 cells pre-incubated 30 min with F4, s.c.; re-injected i.p. day 7 and 14; ten mice; p < 0.05 vs controls
Protocol: as §3
C57Bl6 mice (average body weight: 16–18 g) were purchased from Harlan France (Gannat, France). The in vivo experiments were conducted according to the ethical guidelines of the Centre National de la Recherche Scientifique (CNRS). In vivo melanoma model was previously described (Ramont et al., 2007). Briefly, 2.5 × 10^5 B16F1 cells, pre-incubated (30 min) with either control medium or F4 peptide, were subcutaneously injected into the left side of 10 syngenic C57BL6 mice. Treatments were re-injected intraperitoneally at day 7 and 14. Tumor size was measured regularly.

[5] = tested on: experimental murine melanoma; conditions: experimental murine melanoma model; ref [26]; cited from earlier work
Text: (§4) Type XIX collagen is one of the minor basement membrane-associated collagens. It was discovered in 1992, isolated from rhabdomyosarcoma cell lines and named collagen Y [16]. This discovery was completed in 1993 by Myers et al who gave it the name of RH collagen. It is a 400 kDa homotrimer, composed by the association of three α1(XIX) chains. Each chain comprises 1142 residues, including six non-collagenous domains (NC1-NC6) separated by five collagenous domains (Col1-Col5). This collagen presents high structural homology with other types of collagens IX, XII, XIV, X ...

tumor angiogenesis = conditions: in vitro and in vivo; ref [26]; cited from earlier work
Text: as §4

tumor cells = conditions: in vitro; ref [25]; cited from earlier work
Text: as §4

plasmin [6] = test: Plasmin activity measurement in SKMEL28 culture, chromogenic substrate S-2251; type: cell-based, human; conditions: SKMEL28 with plasminogen; S-2251 hydrolysis at 405 nm
Protocol: After washing with DPBS, cells were incubated in DMEM with/without 20 μL plasminogen (40 μg/mL) and/or 20 μL plasmin (10 μg/mL) and/or 20 μL plasmin chromogenic substrate (250 μg/mL). Hydrolysis of the S-2251 chromogenic substrate (Chromogenix, distributed by Hyphen Biomed, Neuville sur Oise, France) was measured at 405 nm at different time.

[7] = tested on: experimental cancer models; conditions: cited from earlier work
Text: The basement membrane is a complex structure mainly composed of laminins, nidogens, heparan sulfate proteoglycans (perlecan and/or agrin), and type IV collagen. More recently, associations between basement membrane and minor collagens such as type XVIII, XV or type XIX were reported and named basement membrane zone. These collagenous components associated with the basement membrane represent a dynamic interface between this structure and the stroma. Basement membrane has long been described as a simple architectural cell support. […] For instance, endostatin, the NC1 domain of type XVIII collagen, is released by many proteases such as MMP-3, 7, 9, 12, 13, 20 [14, 35, 36], or cathepsins B, L, S, V [37, 38, 39]. […] Tumstatin, the NC1 domain of type IV collagen is generated in vivo by MMP-9 [7]. It exerts anti-tumor and anti ...

[8] = E:S 1:50, 37°C, 0, 5, 30, 60 min, HPLC method 1
[9] = SKMEL28, plasminogen + aprotinin (10^−5 M)
[10] = SKMEL28, plasminogen added (20 μL, 40 μg/mL)

T1 sequence (P00747 97-580 partner limits assumed, species assumed): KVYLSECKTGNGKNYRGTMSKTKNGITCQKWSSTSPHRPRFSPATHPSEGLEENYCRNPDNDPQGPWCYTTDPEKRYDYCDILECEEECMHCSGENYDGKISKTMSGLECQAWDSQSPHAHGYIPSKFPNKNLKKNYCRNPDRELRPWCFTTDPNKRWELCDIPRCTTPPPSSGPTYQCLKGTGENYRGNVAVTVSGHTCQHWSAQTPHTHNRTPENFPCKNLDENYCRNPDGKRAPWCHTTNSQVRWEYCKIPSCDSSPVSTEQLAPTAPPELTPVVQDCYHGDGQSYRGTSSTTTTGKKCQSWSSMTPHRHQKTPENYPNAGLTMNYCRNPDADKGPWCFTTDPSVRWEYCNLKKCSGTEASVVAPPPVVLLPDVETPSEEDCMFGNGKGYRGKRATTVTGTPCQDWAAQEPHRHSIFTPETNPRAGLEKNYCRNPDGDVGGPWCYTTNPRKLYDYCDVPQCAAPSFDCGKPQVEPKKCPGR
T1 sequence (P00747 581-810 limits assumed, species assumed): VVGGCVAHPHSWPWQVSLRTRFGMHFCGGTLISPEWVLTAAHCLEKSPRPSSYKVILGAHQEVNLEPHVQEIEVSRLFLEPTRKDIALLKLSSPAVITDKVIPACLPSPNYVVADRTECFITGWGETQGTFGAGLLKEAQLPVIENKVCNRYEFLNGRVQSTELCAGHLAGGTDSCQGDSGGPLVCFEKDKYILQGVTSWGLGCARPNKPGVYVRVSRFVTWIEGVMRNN

(SPGAPGPQGPPGPSGRC) and the totality of the C-terminal NC1(XIX) domain (NPEDCLYPVSHAHQRTGGN) [P36, synthetic peptide composed of the last 36 residues of the human α1(XIX) chain]
Dependence of digestion on time (plasmin [1]; [8]): time-dependent | Time at which P36 peptide was cleaved by plasmin (plasmin [1]; [8]): ≤ 5 min | Plasmin cleavage site (plasmin [1]; E:S 1:50, 16 h, 37°C, Tris-HCl pH 7.5, MALDI-ToF MS): Arg1138-Thr1139; also recorded: Arg1122-Cys1123 | Dependence of digestion on plasmin dose (plasmin [1]; plasmin 1:50 to 1:400, overnight/16 h, 37°C, HPLC method 1): dose-dependent | Kcat (plasmin [2]): 0.077 s⁻¹ | Release of fragments / cleavage of P36 in cell culture (plasmin [3]; SKMEL28, no added plasminogen): no cleavage of P36 peptide occurred | Cleavage of P36 in cell culture in presence of aprotinin (plasmin [3]; [9]): no cleavage of P36 occurred | Release of fragments / cleavage of P36 in cell culture (plasmin [3]; [10]): P36 peptide disappeared | Cleavage of P36 by MMP-1 (MMP-1): Neither MMP-1, MMP-2, MMP-9 nor MT1-MMP were capable to cleave the P36 peptide | Cleavage of P36 by MMP-2 (MMP-2): Neither MMP-1, MMP-2, MMP-9 nor MT1-MMP were capable to cleave the P36 peptide | Cleavage of P36 by MMP-9 (MMP-9): Neither MMP-1, MMP-2, MMP-9 nor MT1-MMP were capable to cleave the P36 peptide | Cleavage of P36 by MT1-MMP (MT1-MMP): Neither MMP-1, MMP-2, MMP-9 nor MT1-MMP were capable to cleave the P36 peptide | Time for spontaneous intra-chain disulfide bond formation (C^1123-C^1128) [4]: less than 1 h | Intra-chain disulfide bond formation Cys^1123-Cys^1128 [4]: formed an intra-chain disulfide-bond

CNPEDCLYPVSHAHQR [F4]
Release of fragments / cleavage of P36 in cell culture (plasmin [3]; SKMEL28, no added plasminogen): no release | Release of fragments / cleavage of P36 in cell culture (plasmin [3]; [10]): released | Change in wound closure (SKMEL28 cells; 24 h): −53% | Change in wound closure (SKMEL28 cells; 48 h): −39% | Change in wound closure (SKMEL28 cells; 72 h): −36% | Change in tumor growth (tumor volume) (B16F1 cells): −30% | Time for spontaneous intra-chain disulfide bond formation (C^1123-C^1128) [4]: less than 1 h | Intra-chain disulfide bond formation Cys^1123-Cys^1128 [4]: formed an intra-chain disulfide-bond

NPEDCLYPVSHAHQRTGGN [NC1(XIX), C-terminal NC1(XIX) domain (…), 19 amino acids]
Inhibition of in vivo tumor growth [5]: strong inhibition | Tumor angiogenesis (tumor angiogenesis): inhibited tumor angiogenesis in vitro and in vivo | Tumor cell migration and invasion (tumor cells): inhibited the migration and invasion capacities of tumor cells in vitro

SPGAPGPQGPPGPSGR [F2, … Col1 domain of P36 peptide]
Release of fragments / cleavage of P36 in cell culture (plasmin [3]; SKMEL28, no added plasminogen): no release | Release of fragments / cleavage of P36 in cell culture (plasmin [3]; [10]): released

aprotinin [reference compound]
Effect on P36 peptide plasmin digestion (plasmin [1]; aprotinin 10^−5 M, 37°C): completely abolished | Effect on P36 peptide plasmin digestion (plasmin [1]; aprotinin 10^−6 M, 37°C): completely abolished | Effect on P36 peptide plasmin digestion (plasmin [1]; aprotinin 10^−7 M, 37°C): not sufficient to prevent it | Effect of aprotinin on release of F2, F3 and F4 (plasmin [3]; [9]): abolished this release | Inhibition of plasmin activity (plasmin [6]): completely inhibited plasmin activity

endostatin
Anti-tumor properties ([7]; number of experimental cancer models, ref [7], [43]): exerts significant anti-tumor properties | Metastatic potential of cells ([7]; ref [38]): reduces metastatic potential of cells

Source: paper PMC4414144, “Plasmin releases the anti-tumor peptide from the NC1 domain of collagen XIX” (Oncotarget, 2015)
